Patent US12459939B2 (SHANGHAI RINGENE BIOPHARMA CO., LTD., priority 2019, dated 2025)

Experiments:
[1] = Metabolic stability in rat liver microsomes; assay type: in vitro ADME; conditions: liver microsomes 0.5 mg/mL, NADPH, 1 μM compound, read-out: Rat microsomal T1/2
Method: (§1) (1) Metabolic stability test: 150 μL of liver microsomes (final concentration was 0.5 mg/mL) were subjected to metabolic stability incubation, the system containing NADPH (final concentration was 1 mM), 1 μM of the test compound and the positive control midazolam or the negative control atenolol, the reaction was terminated with acetonitrile containing tinidazole at 0 min, 5 min, 10 min, and 30 min, respectively, then the mixture was vortexed for 10 min, and centrifuged at 15000 rmp for 10 min, 50 μL of the supernatant was injected into 96 well. The metabolic stability of the compound was calculated by measuring the relative reduction of the original drug. (See Table 3 for specific values)

[2] = Metabolic stability in mouse liver microsomes; assay type: in vitro ADME; conditions: liver microsomes 0.5 mg/mL, NADPH, 1 μM compound, read-out: Mouse microsomal T1/2
Method: as §1

[3] = Metabolic stability in dog liver microsomes; assay type: in vitro ADME; conditions: liver microsomes 0.5 mg/mL, NADPH, 1 μM compound, read-out: Dog microsomal T1/2
Method: as §1

[4] = system: MV 4-11 transplanted tumor; test: Growth inhibition of MV 4-11 transplanted tumor in nude mice; assay type: in vivo; conditions: dose of 15 mpk, oral, daily
Method: The tumor tissue in vigorous growth stage was cut into about 1.5 mm^3 and inoculated subcutaneously in the right armpit of nude mice under sterile conditions. The diameter of subcutaneous transplanted tumor in nude mice was measured with vernier caliper, and the animals were randomly divided into groups when the average tumor volume was about 130 mm^3. […] During the whole experiment, the diameter of the transplanted tumor was measured twice a week, and the weight of mice was weighed at the same time. The calculation formula of tumor volume (TV) was: TV=½×a×b^2, wherein a and b represent the length and width respectively. The relative tumor volume (RTV) was calculated according to the measurement results, and the calculation formula was: RTV=VT/v0. Wherein VO is the tumor volume measured during the administration in cage (i.e., d0), and Vt is the tumor volume at each measurement.

[5] = system: MV4-11 cells; test: Inhibition of proliferation of MV4-11 cells (CellTiter-Glo); assay type: cell-based; conditions: Homo sapiens, 72 h
Method: Specific experimental steps: 1) Day 0: 96 inoculated cells were digested with trypsin and suspended in cell culture medium, the cell density was detected by an automatic cell counter and the cells were diluted with the culture medium to a suitable density, 100 μL of cell suspension was added to the 96-well plate, and the cell-free medium was used as a control well, and the wells were incubated in a 37° C., 5% CO2 cell incubator overnight; 2) Day 1: A total of 8 concentrations of the compound to be tested in the drug-treated cells were tested at 3-fold dilution, 10 μM was the starting assay concentration of the compound to be tested. Specific steps: 200× compound mother liquor was prepared, the compound was diluted with culture medium to a final concentration of […], that is, 3 μL of 200× compound was added to 197 μL of culture medium, 50 μL diluted compound was added to each well of the 96-well plate, and placed at 37° C., 5% CO2 cell culture incubator for 72 h; 3) Day 4: Cell viability detection: 96-well cell plate was first equilibrated to room temperature, 40 μL of CellTiter-Glo® reagent was added to each well, mixed on a shaker for 2 minutes to fully lyse the cells, incubated at room temperature for 10 minutes to stabilize the luminescence signal, and the luminescence value was read by the Envision microplate reader; 4) data processing was performed by GraphPad Prism 5.0 software to analyze the data, and nonlinear S-curve regression was used to fit the data to obtain a dose-effect curve, and from which the ICso value was calculated. Inhibition rate %=(DMSO treated cell wells−compound treated cell wells)/(DMSO treated cell wells−cell free medium wells)×100. The ICso value was obtained by the four-parameter regression method using the random software in the microplate reader. (See Table 2 for specific values)

[6] = In vivo pharmacokinetics in mice; conditions: male, Balb c, mouse, plasma, po, 5 mg/kg
Method: Six male SPF-grade SD rats or Balb c mice (Shanghai B&K laboratory animals) were divided into two groups and the test compounds were configured into suitable solutions or suspensions; one group was administered intravenously and one group was administered orally. Blood was collected by jugular vein puncture, and each sample was collected about 0.2 mL/time point, heparin sodium was used for anticoagulation, the blood collection time points were as follows: before administration and 5, 15 and 30 minutes, 1, 2, 4, 6, 8 and 24 h after administration, the blood sample was collected and placed on ice, centrifuged to separate the plasma (centrifugation conditions: 8000 rpm, 6 minutes, 2-8° C.), and the collected plasma was stored at −80° C. before analysis. The plasma samples were analyzed by LC-MS/MS.
According to the blood drug concentration data of the drug, the pharmacokinetic calculation software WinNonlin5.2 non-compartmental model was used to calculate the pharmacokinetic parameters AUC0-t, AUC0-∞, MRT0-∞, Cmax, Tmax, T1/2 and Vd and other parameters and their mean and standard deviation. In addition, the bioavailability (F) was calculated by the following formula.
For samples with a concentration lower than the lower limit of quantification, when calculating the pharmacokinetic parameters, the samples sampled before reaching Cmax should be calculated as zero, and samples sampled after reaching Cmax should be calculated as unquantifiable (BLQ).

[7] = biological target: T1, BRD4-BD1 (Homo sapiens, UniProt O60885); test: BRD4 AlphaScreen determination (BD1); assay type: binding; conditions: AlphaScreen, protein binding inhibition; read-out: BRD4-BD1 IC50
T1 construct: purchased ReactionBiologyCorp; (RBC)
Method: (§2) (1) 1× Assay buffer was prepared according to the kit requirements of ReactionBiologyCorp. (RBC). (2) Compound concentration gradient preparation: the test compounds were tested at final concentrations starting at 10 μM, with 10 concentrations at 3-fold dilution and single well test was set for each concentration. The positive control compound(+)-JQ-1 was tested at final concentrations starting at 1 μM, with 10 concentrations at 3-fold dilution, and duplicated well test was set for each concentration. The solution was gradient diluted to the corresponding 1000-fold final concentration in a 384-well Source plate, and then 20 nL of the solution was transferred to the 384-well reaction plate with Echo550 to be measured. 20 nL of 100% DMSO was transferred to the Max well, and the highest concentration of the positive compounds were transferred to the Min wells. […] (6) 5 μL of 4× peptide solution was added to each well of the reaction plate, centrifuged at 1000 rpm for 1 min. (7) 10 μL of the assay solution was added, centrifuged at 1000 rpm for 60 seconds, the solution was mixed with gentle shaking, and incubated at room temperature for 60 minutes. (8) Reading with EnVision. (9) The IC50 values of the compounds for protein binding inhibition was obtained by fitting the dose-effect curve with the analytical software GraphPad Prism 5. (See Table 1 for specific values)

[8] = system: LNCAP, SKM-1, MOLM13, KASUMI 1, THP-1, KG-1; test: Proliferation inhibition of different cell lines: most sensitive lines; assay type: cell-based; conditions: some cell lines such as LNCAP, read-out: proliferation inhibitory activity IC50
Method: (§3) The proliferation inhibitory activity of some of the embodiment compounds against different cell lines such as LNCAP (+R1881), SKM-1, 22RV1, DU145, MOLM13, MDA-PCA-2b, KASUMI 1, THP-1, KG-1, IEC6, H1299, etc., was tested using similar methods in test embodiment 2 and in the literature.

[9] = system: IEC6; test: Proliferation inhibition of IEC6 cells; assay type: cell-based; conditions: Rattus norvegicus, IEC-6; IEC6 cell line; read-out: proliferation inhibitory activity IC50
Method: as §3

[10] = system: most AML cell lines and prostate cancer cell lines; test: Proliferation inhibition of different cell lines: AML and prostate cancer lines; assay type: cell-based; conditions: read-out: proliferation inhibitory activity IC50
Method: as §3

[11] = biological target: T2, BRD4-BD2 (Homo sapiens, UniProt O60885); test: BRD4 AlphaScreen determination (BD2); assay type: binding; conditions: AlphaScreen, protein binding inhibition; read-out: BRD4-BD2 IC50
T2 construct: purchased ReactionBiologyCorp; (RBC)
Method: as §2

[12] = system: H1299; test: Proliferation inhibition of H1299 cells; assay type: cell-based; conditions: Homo sapiens, NCI-H1299; H1299 cell line; read-out: proliferation inhibitory activity IC50
Method: as §3

| Compound | half-life at 1 μM [1] [h] | half-life at 1 μM [2] [h] | half-life at 1 μM [3] [h] | inhibitory rate (growth of transplanted tumor) [4] | IC50 [5] [µM] | bioavailability [6] [%] | IC50 [7] [µM] | IC50 [8] [µM] | IC50 [9] [µM] | IC50 [10] [µM] | IC50 [11] [µM] | IC50 [12] [µM] |
| --- | --- | --- | --- | --- | --- | --- | --- | --- | --- | --- | --- | --- |
| CCNC(=O)c1cc2c(=O)n(C)cc(-c3cc(C(C)(C)O)ccc3Oc3c(C)cc(F)cc3C)c2[nH]1 | 2.8 | 2.83 | 3.25 | – | – | – | – | – | – | – | – | – |
| CCNC(=O)c1cc2c(-c3cc(C(C)(C)O)ccc3Oc3c(C)cc(F)cc3C)cn(C)c(=O)c2[nH]1 [compound 1, N-ethyl-4-(2-(4-fluoro-2,6-dimethylphenoxy)-5-(2-hydroxyprop-2-yl)phenyl)-6-methyl-7-oxo-6,7-dihydro-1H-pyrrolo[2,3-c]pyridine-2-amide, reference compound] | 1.03 | 0.317 | 1.13 | about 60% | 0.032 | 25 | – | – | – | – | – | – |
| Cc1cc(F)cc(C)c1Oc1ccc(C(C)(C)O)cc1-c1cn(C)c(=O)c2cc(C(=O)NCC(F)F)[nH]c12 [Embodiment 11, N-(2,2-difluoroethyl)-7-(2-(4-fluoro-2,6-dimethylphenoxy)-5-(2-hydroxyprop-2-yl)phenyl)-5-methyl-4-oxo-4,5-dihydro-1H-pyrrolo[3,2-c] pyridine-2-amide] | 1.28 | 0.65 | 6.72 | – | 0.0204 | – | 0.109 | < 0.1 | > 1 | < 1 | 0.00057 | > 1 |
